# Results as given in patent US10507201B2, “Use of ring-fused bicyclic pyridyl derivatives as FGFR4 inhibitors” (NOVARTIS AG, priority 2014, dated 2019).
# Columns and labels:
# [1] = test system: JHH7 hepatocellular carcinoma cells; test: Methylene Blue Staining proliferation assay (MBS), JHH7; assay type: cell-based
# Protocol: (§1) The effect of compounds on cell proliferation is assessed using HuH-7 hepatocellular carcinoma cells obtained from the Japanese Collection of Research Bioresources Cell Bank (Cat#JCRB0403) and cultured in the vendor-recommended medium (DMEM high glucose (Amimed Cat#1-26F01-I), 10% foetal calf serum (Invitrogen Cat#16140-071), 1 mM sodium pyruvate (Amimed Cat#5-60F00-H), 1× Penicillin/Streptomycin (Amimed Cat#4-01F00-H)) at 37° C. in a humidified 5% CO2 incubator. Specifically, 5000 cells/well were seeded in 96-well tissue culture plates (TPP Cat#92696) in a total media volume of 100 μl/well and increasing compound dilutions or DMSO were added 24 hours thereafter in triplicates. 72 hours after compound addition, cells were fixed by adding 25 μL/well of 20% glutaraldehyde (Sigma Aldrich Cat#G400-4) and incubated for 10 minutes at room temperature. Cells were washed three times with H2O, 200 μL/well and stained with 100 μL/well 0.05% methylene blue (ABCR GmbH Cat#AB117904) for 10 minutes at room temperature. Cells were washed 3 times with H2O, 200 μL/well and then lysed by adding 200 μL/well of 3% HCl (Fluka Cat#84422) for 30 minutes at room temperature with shaking. Optical density was measured at A650 nm.
# (§2) The effect of compounds on cell proliferation using Hep 3B2.1-7 hepatocellular carcinoma cells, FU97 gastric cancer cells, JHH7 hepatocellular carcinoma cells or JHH6 hepatocellular carcinoma cells is assessed as above. Hep 3B2.1-7, FU97, JHH7 or JHH6 are obtained from the Japanese Collection of Research Bioresources Cell Bank. Hep 3B2.1-7 cells are cultured in EMEM+10% FCS+1 mM Na pyruvate+2 mM L-glutamine and 2000 cells/well are seeded for the proliferation assay. FU97 cells are cultured in DMEM high glucose+10% FCS+1 mM Na pyruvate+4 mM L-glutamine+1×ITS and 2000 cells/well are seeded for the proliferation assay. JHH6 and JHH7 cells are cultured in William's E+10% FCS+2 mM L-glutamine and 3000 cells are seeded for the proliferation assay.
# [2] = test system: Hep 3B2.1-7 hepatocellular carcinoma cells; test: Methylene Blue Staining proliferation assay (MBS), Hep 3B2.1-7; assay type: cell-based; conditions: Homo sapiens, Hep3B, Hep 3B2.1-7 cells
# Protocol: (§3) 72 hours after compound addition, cells were fixed by adding 25 μL/well of 20% glutaraldehyde (Sigma Aldrich Cat#G400-4) and incubated for 10 minutes at room temperature. Cells were washed three times with H2O, 200 μL/well and stained with 100 μL/well 0.05% methylene blue (ABCR GmbH Cat#AB117904) for 10 minutes at room temperature. […] Optical density was measured at A650 nm.
# as §2
# [3] = test system: HuH-7 hepatocellular carcinoma cells; test: CellTiter Glo (CTG) assay, HuH-7; conditions: Homo sapiens, Huh-7, 72 h, read-out: HUH7 proliferation (nM) CTG
# Protocol: CellTiter Glo (CTG) Assay:
# Compound-mediated suppression of cell proliferation/viability is assessed by quantification of cellular ATP levels using the CellTiter-Glo (CTG) reagent (Promega, Cat#G7573). […] For data analysis, the assay background value determined in wells containing medium, but no cells, is subtracted from all data points. […] The effect of a particular test compound concentration on cell proliferation/viability is expressed as percentage of the background- and day 0-corrected luminescence reading obtained for cells treated with vehicle only (DMSO, 0.1% f.c.), which is set as 100%, whereas the luminescence reading for wells containing medium only, but no cells, is set as −100%. Compound concentrations leading to half-maximal growth inhibition (GI50) are determined using standard four parameter curve fitting (XLfit 5.2., IDBS, UK).
# [4] = test system: FU97 gastric cancer cells; test: Methylene Blue Staining proliferation assay (MBS), FU97; assay type: cell-based
# Protocol: as §1, §2
# [5] = test system: HuH-7 hepatocellular carcinoma cells; test: Methylene Blue Staining proliferation assay (MBS), HuH-7; assay type: cell-based; conditions: Homo sapiens, HuH-7 cells, 72 hours after compound addition, read-out: HUH7 proliferation (nM) MBS
# Protocol: Methylene Blue Staining Proliferation Assay (MBS):
# as §3
Compound,IC50 [1],IC50 [2],IC50 [3],IC50 [4],IC50 [5]
"CC(=O)N(C)Cc1cc2c(nc1C=O)N(C(=O)Nc1ccc(C#N)cn1)CCC2 [Example 68, N-(5-cyanopyridin-2-yl)-7-formyl-6-((N-methylacetamido)methyl)-3,4-dihydro-1,8-naphthyridine-1(2H)-carboxamide]",> 3000 nM,> 3000 nM,,,
"CC(C)Oc1cc(NC(=O)N2CCCc3cc(CN4CCN(C)CC4=O)c(C=O)nc32)ncc1C#N [Example 92, N-(5-cyano-4-isopropoxypyridin-2-yl)-7-formyl-6-((4-methyl-2-oxopiperazin-1-yl)methyl)-3,4-dihydro-1,8-naphthyridine-1(2H)-carboxamide]",,,38 nM,,
"COCCOc1cc(NC(=O)N2CCCc3cc(C(F)F)c(C=O)nc32)ncc1C#N [Example 63, N-(5-cyano-4-(2-methoxyethoxy)pyridin-2-yl)-6-(difluoromethyl)-7-formyl-3,4-dihydro-1,8-naphthyridine-1(2H)-carboxamide]",> 3000 nM,,,,
"COC[C@@H](C)Oc1cc(NC(=O)N2CCCc3cc(CN4CCN(C)CC4=O)c(C=O)nc32)ncc1C#N [Example 205, (R)—N-(5-cyano-4-((1-methoxypropan-2-yl)oxy)pyridin-2-yl)-7-formyl-6-((4-methyl-2-oxopiperazin-1-yl)methyl)-3,4-dihydro-1,8-naphthyridine-1(2H)-carboxamide]",,5 nM,17.8 nM,,
"COCCNc1cc(NC(=O)N2CCCc3cc(CO)c(C=O)nc32)ncc1C#N [Example 80, N-(5-cyano-4-((2-methoxyethyl)amino)pyridin-2-yl)-7-formyl-6-(hydroxymethyl)-3,4-dihydro-1,8-naphthyridine-1(2H)-carboxamide]",150 nM,,168 nM,96 nM,
"N#Cc1ccc(NC(=O)N2CCCc3cc(CO)c(C=O)nc32)nc1 [Example 27, N-(5-cyanopyridin-2-yl)-7-formyl-6-(hydroxymethyl)-3,4-dihydro-1,8-naphthyridine-1(2H)-carboxamide]",> 3000 nM,,,,
"N#Cc1cnc(NC(=O)N2CCCc3cc(CO)c(C=O)nc32)cc1O[C@H]1CCOC1 [Example 50, (S)—N-(5-cyano-4-((tetrahydrofuran-3-yl)oxy)pyridin-2-yl)-7-formyl-6-(hydroxymethyl)-3,4-dihydro-1,8-naphthyridine-1(2H)-carboxamide]",484 nM,,,234 nM,270 nM
"COCCNc1cc(NC(=O)N2CCCc3cc(CN4CCN(C)CC4=O)c(C=O)nc32)ncc1C#N [Example 83, N-(5-cyano-4-((2-methoxyethyl)amino)pyridin-2-yl)-7-formyl-6-((4-methyl-2-oxopiperazin-1-yl)methyl)-3,4-dihydro-1,8-naphthyridine-1(2H)-carboxamide]",9 nM,1 nM,60.9 nM,23 nM,12 nM
"COCCOc1cc(NC(=O)N2CCCc3cc(CO)c(C=O)nc32)ncc1C#N [Example 39, N-(5-cyano-4-(2-methoxyethoxy)pyridin-2-yl)-7-formyl-6-(hydroxymethyl)-3,4-dihydro-1,8-naphthyridine-1(2H)-carboxamide]",> 3000 nM,,569 nM,,123 nM
"COCCOc1cc(NC(=O)N2CCCc3cc(CN4CCN(C)CC4=O)c(C=O)nc32)ncc1C#N [Example 101, N-(5-cyano-4-(2-methoxyethoxy)pyridin-2-yl)-7-formyl-6-((4-methyl-2-oxopiperazin-1-yl)methyl)-3,4-dihydro-1,8-naphthyridine-1(2H)-carboxamide]",,,142 nM,,82 nM
